Patent US8927717B1, “Thiochromeno[2,3-c]quinolin-12-one derivatives, preparation method and application thereof” (National Defense Medical Center, priority 2014, dated 2015)

What was measured:
[1] = tested on: OVCAR-3; assay type: cell-based
[2] = tested on: HOP-62; assay type: cell-based
[3] = tested on: SK-MEL-2; assay type: cell-based
[4] = tested on: M14; assay type: cell-based
[5] = tested on: HCC-2998; assay type: cell-based
[6] = tested on: HOP-92; assay type: cell-based
[7] = tested on: SNB-75; assay type: cell-based
[8] = tested on: IGROV1; assay type: cell-based
[9] = tested on: COLO 205; assay type: cell-based
[10] = tested on: CAKI-1; assay type: cell-based
[11] = tested on: SF-539; assay type: cell-based
[12] = tested on: SNB-19; assay type: cell-based
[13] = tested on: HT29; assay type: cell-based
[14] = tested on: HL-60(TB); assay type: cell-based; details: 10^−5 molar; for Growth percent: HL-60(TB)
[15] = tested on: HS 578T; assay type: cell-based
[16] = tested on: SW-620; assay type: cell-based
[17] = tested on: ACHN; assay type: cell-based
[18] = tested on: UACC-257; assay type: cell-based
[19] = tested on: OVCAR-4; assay type: cell-based
[20] = tested on: NCI-H460; assay type: cell-based
[21] = target: T1, TOP I (Topoisomerase I) (Homo sapiens, UniProt P11387); assay: TOP I mediated supercoiled DNA relaxation assay; assay type: biochemical; details: primary assay at 25 and/or 50 μM
T1 construct: purchased TopoGEN TG2005H
T1 sequence (P11387 1-765): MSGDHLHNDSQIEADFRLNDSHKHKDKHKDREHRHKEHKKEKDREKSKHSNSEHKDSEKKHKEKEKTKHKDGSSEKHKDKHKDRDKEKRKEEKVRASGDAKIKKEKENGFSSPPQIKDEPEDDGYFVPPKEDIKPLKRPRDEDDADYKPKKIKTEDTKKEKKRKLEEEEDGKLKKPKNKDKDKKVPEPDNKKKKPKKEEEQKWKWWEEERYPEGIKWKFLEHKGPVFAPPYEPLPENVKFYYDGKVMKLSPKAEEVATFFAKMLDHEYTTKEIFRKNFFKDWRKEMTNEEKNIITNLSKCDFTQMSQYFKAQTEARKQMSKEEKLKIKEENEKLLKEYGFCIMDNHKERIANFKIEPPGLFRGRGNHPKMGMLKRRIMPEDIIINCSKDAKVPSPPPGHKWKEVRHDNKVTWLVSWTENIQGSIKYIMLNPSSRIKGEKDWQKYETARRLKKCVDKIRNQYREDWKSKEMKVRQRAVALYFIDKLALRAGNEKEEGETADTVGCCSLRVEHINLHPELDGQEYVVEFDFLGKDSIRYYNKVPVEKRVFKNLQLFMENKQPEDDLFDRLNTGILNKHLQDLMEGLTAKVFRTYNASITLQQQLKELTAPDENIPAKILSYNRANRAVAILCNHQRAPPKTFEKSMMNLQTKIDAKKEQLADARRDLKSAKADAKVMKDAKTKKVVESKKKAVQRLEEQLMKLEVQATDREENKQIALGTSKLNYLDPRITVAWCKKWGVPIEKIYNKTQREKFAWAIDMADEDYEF
Procedure: According to the cell cytotoxicity, compounds 5, 7, 8, 16, 19, N2, N7, N8, N9, N14-N19, and N25 were also selected for primary TOP I and II activities assays at 25 and/or 50 μM (FIG. 2-4).

[22] = target: T2, TOP II (Topoisomerase II) (Homo sapiens, UniProt P11388); assay: TOP II-catalyzed relaxation of plasmid DNA assay; assay type: biochemical
T2 construct: purchased TopoGEN TG-2000H-1
Procedure: We also performed TOP II-catalyzed relaxation of plasmid DNA assays (FIG. 5-7) to evaluate if compounds could inhibit TOP II. […] The IC50 value of compounds 7, N7, N8, N14, N15, N18, and N19 were about 10, 10, 1, 10, 5, 1, and 1 μM, respectively (detect by TopoGEN TG2005H, TG-2000H-1).

[23] = target: T1, TOP I (Topoisomerase I); assay: TOP I mediated supercoiled DNA relaxation assay; assay type: biochemical; details: five different concentrations; TopoGEN TG2005H, TG-2000H-1
[24] = Ovarian cancer, 10^−5 molar, 48 hours, SRB
[25] = Non-small cell lung cancer, 10^−5 molar, 48 hours, SRB
[26] = Melanoma, 10^−5 molar, 48 hours, SRB
[27] = Colon cancer, 10^−5 molar, 48 hours, SRB
[28] = CNS cancer, 10^−5 molar, 48 hours, SRB
[29] = Renal cancer, 10^−5 molar, 48 hours, SRB

T2 sequence (P11388 whole entry): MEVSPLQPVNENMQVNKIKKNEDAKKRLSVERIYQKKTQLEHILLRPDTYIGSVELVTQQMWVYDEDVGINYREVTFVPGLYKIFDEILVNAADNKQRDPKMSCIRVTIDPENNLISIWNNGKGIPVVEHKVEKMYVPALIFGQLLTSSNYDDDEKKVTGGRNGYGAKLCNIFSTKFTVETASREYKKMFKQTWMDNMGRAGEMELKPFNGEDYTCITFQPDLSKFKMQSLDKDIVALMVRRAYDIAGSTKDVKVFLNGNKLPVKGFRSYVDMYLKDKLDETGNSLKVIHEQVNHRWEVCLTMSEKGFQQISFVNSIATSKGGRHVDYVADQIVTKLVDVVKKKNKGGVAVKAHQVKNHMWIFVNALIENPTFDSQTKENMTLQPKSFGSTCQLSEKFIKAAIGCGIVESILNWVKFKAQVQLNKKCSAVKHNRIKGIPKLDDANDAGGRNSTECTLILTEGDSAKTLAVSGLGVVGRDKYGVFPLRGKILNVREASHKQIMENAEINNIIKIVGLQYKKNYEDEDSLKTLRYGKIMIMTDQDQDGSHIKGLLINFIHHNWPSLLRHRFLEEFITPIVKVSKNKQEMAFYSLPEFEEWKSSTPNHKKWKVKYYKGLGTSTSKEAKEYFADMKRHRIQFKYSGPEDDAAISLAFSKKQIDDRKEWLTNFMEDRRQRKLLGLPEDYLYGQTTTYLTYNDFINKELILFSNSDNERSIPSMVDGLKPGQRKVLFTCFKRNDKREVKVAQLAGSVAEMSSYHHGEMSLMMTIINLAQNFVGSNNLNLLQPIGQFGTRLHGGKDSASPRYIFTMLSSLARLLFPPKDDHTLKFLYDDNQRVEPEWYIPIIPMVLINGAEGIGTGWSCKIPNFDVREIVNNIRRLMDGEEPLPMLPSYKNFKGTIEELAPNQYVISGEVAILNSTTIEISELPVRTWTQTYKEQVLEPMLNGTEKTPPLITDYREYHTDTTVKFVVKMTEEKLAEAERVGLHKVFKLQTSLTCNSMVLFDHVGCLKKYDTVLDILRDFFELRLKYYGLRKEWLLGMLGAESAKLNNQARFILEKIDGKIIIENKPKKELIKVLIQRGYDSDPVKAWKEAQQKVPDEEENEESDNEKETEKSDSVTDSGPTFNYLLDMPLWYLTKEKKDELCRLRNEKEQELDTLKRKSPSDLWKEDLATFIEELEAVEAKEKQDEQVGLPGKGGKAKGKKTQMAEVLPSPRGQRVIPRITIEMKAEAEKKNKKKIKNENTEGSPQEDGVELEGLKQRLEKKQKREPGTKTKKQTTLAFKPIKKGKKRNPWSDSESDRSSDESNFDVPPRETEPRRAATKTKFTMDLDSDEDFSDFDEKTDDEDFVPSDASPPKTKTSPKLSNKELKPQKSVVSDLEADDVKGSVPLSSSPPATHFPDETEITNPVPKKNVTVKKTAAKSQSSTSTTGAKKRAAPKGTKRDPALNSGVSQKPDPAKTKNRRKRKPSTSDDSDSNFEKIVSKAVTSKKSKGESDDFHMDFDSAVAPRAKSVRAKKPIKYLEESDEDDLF

O=c1c2cc(Cl)ccc2sc2c(NCCO)nc3ccccc3c12 [Compound N9, 10-Chloro-6-(2-ethanolamino)-12H-thiochromeno[2,3-c]quinolin-12-one]
Growth percent OVCAR-3 [1, 24]: 103.35%
Growth percent HOP-62 [2, 25]: 81.90%
Growth percent SK-MEL-2 [3, 26]: 86.80%
Growth percent M14 [4, 26]: 107.09%
Growth percent HCC-2998 [5, 27]: 101.55%
Growth percent HOP-92 [6, 25]: 63.17%
Growth percent SNB-75 [7, 28]: 90.05%
Growth percent IGROV1 [8, 24]: 88.51%
Growth percent COLO 205 [9, 27]: 99.13%
Growth percent CAKI-1 [10, 29]: 89.29%
Growth percent SF-539 [11, 28]: 90.56%
Growth percent SNB-19 [12, 28]: 90.96%
Growth percent HT29 [13, 27]: 87.36%
Growth percent HL-60(TB) ([14]; Leukemia, 48 hours, SRB): 104.58%
Growth percent HS 578T ([15]; Breast cancer, 10^−5 molar, 48 hours, SRB): 83.24%
Growth percent SW-620 [16, 27]: 97.18%
Growth percent ACHN [17, 29]: 82.25%
Growth percent UACC-257 [18, 26]: 89.33%
Growth percent OVCAR-4 [19, 24]: 102.67%
Growth percent NCI-H460 [20, 25]: 100.97%

CN(C)CCCNc1nc2ccccc2c2c(=O)c3cc(Cl)ccc3sc12 [Compound N17, 10-Chloro-6-((3-(dimethylamino)propyl)amino)-12H-thiochromeno[2,3-c]quinolin-12-one]
Growth percent ([2]; HOP-62, 10^−5 molar): 86.73%
Growth percent ([3]; SK-Mel-2, 10^−5 molar): 106.47%
Growth percent ([4]; M14, 10^−5 molar): 103.73%
melting point: 194 to 195 °C
Growth percent ([5]; HCC-2998, 10^−5 molar): 108.36%
Growth percent ([6]; HOP-92, 10^−5 molar): 40.76%
Growth percent ([7]; SNB-75, 10^−5 molar): 60.99%
Growth percent ([8]; IGROV1, 10^−5 molar): 87.27%
Growth percent ([9]; COLO 205, 10^−5 molar): 91.35%
Growth percent ([10]; CAKI-1, 10^−5 molar): 84.31%
Growth percent ([11]; SF-539, 10^−5 molar): 87.85%
Growth percent ([12]; SNB-19, 10^−5 molar): 97.83%
Growth percent ([13]; HT29, 10^−5 molar): 90.98%
Growth percent [14]: 77.32%
inhibitory effect in TOP I activity assay compared with CPT [21]: more potent inhibitory effects than CPT
Growth percent ([15]; HS 578T, 10^−5 molar): 87.67%
Growth percent ([16]; SW-620, 10^−5 molar): 91.74%
Growth percent ([17]; ACHN, 10^−5 molar): 86.20%
Growth percent ([18]; UACC-257, 10^−5 molar): 107.40%
Growth percent ([19]; OVCAR-4, 10^−5 molar): 94.63%
Growth percent ([20]; NCI-H460, 10^−5 molar): 88.06%

O=c1c2cc(Cl)ccc2sc2c(NCCCNCCO)nc3ccccc3c12 [Compound N19, 10-Chloro-6-((3-((2-hydroxyethyl)amino)propyl)amino)-12H-thiochromeno[2,3-c]quinolin-12-one]
GI50 ([1]; Homo sapiens, OVCAR-3, five dose): 1.79 µM
TGI ([1]; OVCAR-3, five dose): 3.51 µM
Growth percent ([2]; HOP-62, 10^−5 molar): 36.97%
TGI ([2]; HOP-62, five dose): 2.89 µM
GI50 ([2]; Homo sapiens, HOP-62, five dose): 1.38 µM
GI50 ([3]; Homo sapiens, SK-Mel-2, five dose): 2.05 µM
Growth percent ([3]; SK-Mel-2, 10^−5 molar): 53.64%
TGI ([3]; SK-Mel-2, five dose): 3.77 µM
GI50 ([4]; Homo sapiens, M14, five dose): 1.83 µM
Growth percent ([4]; M14, 10^−5 molar): 6.12%
TGI ([4]; M14, five dose): 3.53 µM
Growth percent ([5]; HCC-2998, 10^−5 molar): −74.47%
TGI ([5]; HCC-2998, five dose): 3.42 µM
GI50 ([5]; Homo sapiens, HCC-2998, five dose): 1.58 µM
Growth percent ([6]; HOP-92, 10^−5 molar): 23.01%
TGI ([6]; HOP-92, five dose): 4.58 µM
GI50 ([6]; Homo sapiens, HOP-92, five dose): 1.23 µM
IC50 ([22]; five different concentrations, TopoGEN TG2005H, TG-2000H-1, read-out: IC50 value, TOP II mediated supercoiled DNA relaxation): ~1 µM
inhibitory effect in TOP II relaxation assay compared with VP-16 ([22]; primary assay at 25 and/or 50 μM): more potent inhibitory effects than the positive agent VP-16
GI50 ([7]; Homo sapiens, SNB-75, five dose): 1.28 µM
Growth percent ([7]; SNB-75, 10^−5 molar): 23.66%
TGI ([7]; SNB-75, five dose): 2.56 µM
GI50 ([8]; Homo sapiens, IGROV-1, IGROV1, five dose): 1.66 µM
Growth percent ([8]; IGROV1, 10^−5 molar): −43.25%
TGI ([8]; IGROV1, five dose): 3.60 µM
Growth percent ([9]; COLO 205, 10^−5 molar): −87.17%
TGI ([9]; COLO 205, five dose): 3.37 µM
GI50 ([9]; Homo sapiens, COLO 205, five dose): 1.63 µM
IC50 [23]: ~5 µM
TGI ([10]; CAKI-1, five dose): 2.69 µM
GI50 ([10]; Homo sapiens, CAKI-1, five dose): 1.33 µM
CC50 ([10]; Homo sapiens, CAKI-1, five dose, read-out: LC50 (the source's name)): 5.45 µM
GI50 ([11]; Homo sapiens, SF-539, five dose): 1.7 µM
Growth percent ([11]; SF-539, 10^−5 molar): −47.59%
TGI ([11]; SF-539, five dose): 3.22 µM
GI50 ([12]; Homo sapiens, SNB-19, five dose): 1.64 µM
Growth percent ([12]; SNB-19, 10^−5 molar): 46.07%
TGI ([12]; SNB-19, five dose): 3.26 µM
Growth percent ([13]; HT29, 10^−5 molar): −83.53%
TGI ([13]; HT29, five dose): 4.00 µM
GI50 ([13]; Homo sapiens, HT-29, HT29, five dose): 2.05 µM
Growth percent [14]: −37.88%
Growth percent ([15]; HS 578T, 10^−5 molar): 64.69%
TGI ([15]; HS 578T, five dose): 3.53 µM
GI50 ([15]; Homo sapiens, HS 578T, five dose): 1.29 µM
CC50 ([15]; Homo sapiens, HS 578T, five dose, read-out: LC50 (the source's name)): 9.64 µM
GI50 ([16]; Homo sapiens, SW-620, five dose): 1.63 µM
Growth percent ([16]; SW-620, 10^−5 molar): −81.48%
TGI ([16]; SW-620, five dose): 3.30 µM
Growth percent ([17]; ACHN, 10^−5 molar): −96.96%
TGI ([17]; ACHN, five dose): 3.22 µM
GI50 ([17]; Homo sapiens, ACHN, five dose): 1.67 µM
GI50 ([18]; Homo sapiens, UACC-257, five dose): 1.86 µM
CC50 ([18]; Homo sapiens, UACC-257, five dose, read-out: LC50 (the source's name)): 6.33 µM
Growth percent ([18]; UACC-257, 10^−5 molar): 45.70%
TGI ([18]; UACC-257, five dose): 3.44 µM
GI50 ([19]; Homo sapiens, OVCAR-4, five dose): 1.6 µM
Growth percent ([19]; OVCAR-4, 10^−5 molar): 12.32%
TGI ([19]; OVCAR-4, five dose): 3.23 µM
GI50 ([20]; Homo sapiens, NCI-H460, five dose): 1.66 µM
Growth percent ([20]; NCI-H460, 10^−5 molar): −80.98%
TGI ([20]; NCI-H460, five dose): 3.35 µM
